Experimental data published in PubChem BioAssay AID248 (DTP/NCI, 2004).
Several values for one entry are separate records, joined by “and”; a condition that tells them apart may be missing. Equal entries are not always repeated. Inconclusive results and toxic doses are left out. Cut-off read from the data, not from the text of the source: active = T/C of 150% or more; inactive = T/C below 125%.

Test system: L1210 leukemia ip in BDF1 mice, survival T/C
Test: NCI In Vivo Anticancer Drug Screen. Data for tumor model L1210 Leukemia (intraperitoneal) in B6D2F1 (BDF1) mice
Conditions: endpoint: mean survival time, higher = longer survival
In short: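 Value reflects the ratio of survival in compound-treated mice to survival in vehicle-treated controls, with both groups carrying the same transplanted tumor.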

[1] = dose: 100.0 mg/kg/injection, schedule: Q04DX003 (ip), vehicle: saline
[2] = dose: 200.0 mg/kg/injection, schedule: Q04DX003 (ip), vehicle: saline
[3] = dose: 400.0 mg/kg/injection, schedule: Q04DX003 (ip), vehicle: saline
[4] = dose: 100.0 mg/kg/injection, schedule: Q01DX009 (ip), vehicle: Klucel (hydroxypropylcellulose) (HPC)
[5] = dose: 200.0 mg/kg/injection, schedule: Q01DX009 (ip), vehicle: Klucel (hydroxypropylcellulose) (HPC)
[6] = dose: 400.0 mg/kg/injection, schedule: Q01DX009 (ip), vehicle: Klucel (hydroxypropylcellulose) (HPC)
[7] = dose: 100.0 mg/kg/injection, schedule: Q04DX003 (ip), vehicle: Klucel (hydroxypropylcellulose) (HPC)
[8] = dose: 200.0 mg/kg/injection, schedule: Q04DX003 (ip), vehicle: Klucel (hydroxypropylcellulose) (HPC)
[9] = dose: 100.0 mg/kg/injection, schedule: Q04DX002 (ip), vehicle: Klucel (hydroxypropylcellulose) (HPC)
[10] = dose: 200.0 mg/kg/injection, schedule: Q04DX002 (ip), vehicle: Klucel (hydroxypropylcellulose) (HPC)
[11] = dose: 400.0 mg/kg/injection, schedule: Q04DX002 (ip), vehicle: Klucel (hydroxypropylcellulose) (HPC)
[12] = dose: 50.0 mg/kg/injection, schedule: Q01DX001 (ip), vehicle: carboxymethylcellulose (CMC)
[13] = dose: 100.0 mg/kg/injection, schedule: Q01DX001 (ip), vehicle: carboxymethylcellulose (CMC)
[14] = dose: 200.0 mg/kg/injection, schedule: Q01DX001 (ip), vehicle: carboxymethylcellulose (CMC)
[15] = dose: 400.0 mg/kg/injection, schedule: Q01DX001 (ip), vehicle: carboxymethylcellulose (CMC)

Measured: T/C

N#CCCn1ccc2ccccc21
inactive: dose: 100.0 mg/kg/injection, schedule: Q04DX003 (ip), vehicle: other 96 % of control | dose: 200.0 mg/kg/injection, schedule: Q04DX003 (ip), vehicle: other 104 % of control | dose: 400.0 mg/kg/injection, schedule: Q04DX003 (ip), vehicle: other 106 % of control

CCOc1ccc(Br)cc1
inactive: dose: 100.0 mg/kg/injection, schedule: Q01DX001 (ip), vehicle: saline with Tween-80 91 % of control | dose: 100.0 mg/kg/injection, schedule: Q01DX009 (ip), vehicle: saline with Tween-80 95 % of control and 105 % of control | dose: 100.0 mg/kg/injection, schedule: Q04DX002 (ip), vehicle: saline with Tween-80 97 % of control and 101 % of control | dose: 100.0 mg/kg/injection, schedule: Q04DX003 (ip), vehicle: saline with Tween-80 105 % of control | dose: 200.0 mg/kg/injection, schedule: Q01DX001 (ip), vehicle: saline with Tween-80 87 % of control | dose: 200.0 mg/kg/injection, schedule: Q01DX009 (ip), vehicle: saline with Tween-80 105 % of control and 92 % of control | dose: 200.0 mg/kg/injection, schedule: Q04DX002 (ip), vehicle: saline with Tween-80 119 % of control and 92 % of control | dose: 200.0 mg/kg/injection, schedule: Q04DX003 (ip), vehicle: saline with Tween-80 94 % of control | dose: 400.0 mg/kg/injection, schedule: Q01DX001 (ip), vehicle: saline with Tween-80 89 % of control | dose: 400.0 mg/kg/injection, schedule: Q04DX002 (ip), vehicle: saline with Tween-80 99 % of control and 91 % of control | dose: 400.0 mg/kg/injection, schedule: Q04DX003 (ip), vehicle: saline with Tween-80 101 % of control

NCCSS(=O)(=O)CCN
inactive: dose: 100.0 mg/kg/injection, schedule: Q01DX009 (ip), vehicle: saline 105 % of control | [1] 106 % of control | dose: 200.0 mg/kg/injection, schedule: Q01DX009 (ip), vehicle: saline 107 % of control | [2] 107 % of control | dose: 400.0 mg/kg/injection, schedule: Q01DX009 (ip), vehicle: saline 100 % of control | [3] 100 % of control

Cc1[nH]c2ccccc2c1C(c1ccccc1O)c1c(C)[nH]c2ccccc12
inactive: [4] 97 % of control | [5] 103 % of control | [6] 101 % of control

Nc1cc(Nc2ccc(S(N)(=O)=O)cc2)nc(N)n1
inactive: [7] 93 % of control | [8] 97 % of control | dose: 400.0 mg/kg/injection, schedule: Q04DX003 (ip), vehicle: Klucel (hydroxypropylcellulose) (HPC) 93 % of control

NC(=O)c1ccc(Cl)c([N+](=O)[O-])c1
inactive: [7] 110 % of control | [8] 109 % of control

C[n+]1cccc2cc(C(=O)O)ccc21
inactive: dose: 50.0 mg/kg/injection, schedule: Q01DX009 (ip), vehicle: acetone 101 % of control | dose: 100.0 mg/kg/injection, schedule: Q01DX009 (ip), vehicle: acetone 97 % of control | dose: 200.0 mg/kg/injection, schedule: Q01DX009 (ip), vehicle: acetone 93 % of control

Cc1ccc(N2P(N(C)C)N(c3ccc(C)cc3)P2(=O)N(C)C)cc1 (stereo unspecified)
inactive: [9] 111 % of control | [10] 101 % of control | [11] 101 % of control

COC(=O)C1OC(n2cnc3c(N)ncnc32)C(OC(C)=O)C(OC(C)=O)C1OC(C)=O (stereo unspecified)
inactive: [12] 100 % of control | [13] 92 % of control | [14] 100 % of control | [15] 92 % of control

ClCC#Cc1ccccc1
inactive: dose: 12.0 mg/kg/injection, schedule: Q01DX009 (ip), vehicle: saline 100 % of control | dose: 25.0 mg/kg/injection, schedule: Q01DX009 (ip), vehicle: saline 100 % of control | dose: 50.0 mg/kg/injection, schedule: Q01DX009 (ip), vehicle: saline 101 % of control | [1] 103 % of control | [2] 92 % of control | [3] 91 % of control

Cc1sc2ccc3ccccc3c2[n+]1C
inactive: dose: 50.0 mg/kg/injection, schedule: Q04DX003 (ip), vehicle: Klucel (hydroxypropylcellulose) (HPC) 105 % of control | dose: 75.0 mg/kg/injection, schedule: Q01DX001 (ip), vehicle: saline 103 % of control | [7] 109 % of control | dose: 150.0 mg/kg/injection, schedule: Q01DX001 (ip), vehicle: saline 111 % of control

O=C1c2ccccc2-c2nc3cc4ccccc4cc3nc21
inactive: dose: 100.0 mg/kg/injection, schedule: Q01DX001 (ip), vehicle: Klucel (hydroxypropylcellulose) (HPC) 98 % of control | [4] 98 % of control | dose: 200.0 mg/kg/injection, schedule: Q01DX001 (ip), vehicle: Klucel (hydroxypropylcellulose) (HPC) 88 % of control | [5] 97 % of control | dose: 400.0 mg/kg/injection, schedule: Q01DX001 (ip), vehicle: Klucel (hydroxypropylcellulose) (HPC) 97 % of control | [6] 102 % of control

CN(C)/C=C1\CCOC1=O
inactive: dose: 100.0 mg/kg/injection, schedule: Q04DX002 (ip), vehicle: saline 101 % of control | dose: 200.0 mg/kg/injection, schedule: Q04DX002 (ip), vehicle: saline 119 % of control

O=C(COc1ccccc1C(=O)O)Nc1ccccc1
inactive: dose: 25.0 mg/kg/injection, schedule: Q04DX002 (ip), vehicle: Klucel (hydroxypropylcellulose) (HPC) 114 % of control | dose: 50.0 mg/kg/injection, schedule: Q04DX002 (ip), vehicle: Klucel (hydroxypropylcellulose) (HPC) 92 % of control | [9] 96 % of control

Cc1ccccc1OP(=S)(NN)Oc1ccccc1C
inactive: [9] 93 % of control | [10] 100 % of control | [11] 100 % of control

COc1cc(N=Nc2ccccc2OC)ccc1N
inactive: [12] 97 % of control | [13] 109 % of control | [14] 106 % of control | [15] 101 % of control
